In patent US3949075A, “Anti-microbial compounds of 2', 4' substituted anilides of substituted nitrosalicylic acid for quadruped animals” (Ferro Corporation, priority 1974, dated 1976):
Like-named read-outs stand apart in the source and are kept apart here.

Tested on: Haemonchus contortus
Assay: Percent of Haemonchus destroyed or expelled in infected sheep (egg count after treatment)
Format: in vivo, Haemonchus contortus (in sheep)
Details: for Effectiveness at 15 mg/kg against Haemonchus: Table VI
Method: Two groups of sheep were used in the tests. One group was used as a non-medicated control, while the other group was treated with the compound under investigation. Helminth-free young lambs were infected with about 10,000 filariform larvae of Haemonchus contortus. In three weeks when the infection became apparent, egg counts were made to determine the density of the worm burden.
The egg count was carried out using the following modified Stoll method. Three grams of sheep feces were taken rectally from each animal and placed in a Stoll flask. To each flask, tap water was added to the top line. The fecal pellets were too hard to break down, the flasks were closed with rubber stoppers and kept in the refrigerator for several hours. The flasks were thoroughly shaken and a 1 ml. sample was drawn from the middle using a wide mouth pipette. This 1 ml. sample was transferred to an 8 ml. plastic tube, to which enough saturated sodium chloride solution was added to reach the rim. The tubes were then centrifuged for 10 minutes at 1500 r.p.m. Then sodium chloride solution was added with a medicine dropper forming a concave miniscus. A cover glass was carefully added and the tubes were kept in a refrigerator for ten to twenty minutes. During that period, the nematode ova flowed upward and adhered to the bottom of the cover glass slip. At the end of the 20-minute period, the cover slip was carefully detached from the miniscus and transferred to a microscopic slide. The ova were then counted under a microscope equipped with 10X ocular and 10X objective lens. Each ovum under the microscope represented 20 ova in the sample.
Animals with sufficiently high egg counts were taken out of the pool and housed in experimental pens. Since the salicylanilides of the present invention are water insoluble, the compounds were first ground using a mortar and pestle and then were placed in a carboxymethyl cellulose solution. The particles were further micronized ultrasonically. The compound was then administered to two or three animals by Oesophageal gavage. Control, untreated animals, received only the carboxymethyl cellulose solution in a similar manner. On the sixth and seventh day after treatment, fecal pellets were taken from the rectum of the control as well as the treated animals and egg counts were made.
The results of tests on sheep in a manner described, supra, using compounds of the present invention are given in Table 1, Examples 5 through 13. The numbers in the column headed "Haemonchus (15 mg/kg)" refer to the percent of parasites destroyed or expelled when the indicated compound was introduced into the rumen of sheep at a dosage of 15 milligrams per kilogram of body weight. The values under "Tolerance (mg/kg)" refer to the highest test dosage in the milligrams of anthelmintic per kilogram of body weight at which the sheep developed no toxic symptoms. "Tol." is an abbreviation for "tolerated". The symbols R1 and R2 refer to those of Formula I in these and other following examples.
The data of the tables were generated using procedures previously described. The compounds tested are disubstituted and, except for Example 50 which is dibromo, are dichloro. Where the position for the substituents is other than 2' and 4', it is indicated. Under the indicated microorganisms, the values given in this and the following tables, should be read as: percentage of microorganism killed/dose in milligrams per kilogram of body weight. Under "Tolerance", the term "Tol." means "tolerated", "Tox." means "toxic", and "Sym." means "symptoms of toxic reaction", all at the dosage value which follows. It will be appreciated that there is no sharp toxicity end point in determining toxicity to living sheep.

[1] = Haemonchus contortus, sheep, 15 mg/kg, Table V, read-out: Effectiveness at 15 mg/kg against Haemonchus
[2] = Haemonchus contortus, sheep, 15 mg/kg, Tables VIII-XI, read-out: Haemonchus, percentage of microorganism killed
[3] = Haemonchus contortus, sheep, intrarumenal, 15 mg/kg, Table II, read-out: Effectiveness in removal of Haemonchus
[4] = Haemonchus contortus, iv, sheep, 15 mg/kg, Tables III and IV, read-out: Effectiveness (%) at 15 mg/kg
[5] = Haemonchus contortus, read-out: Effectiveness at 15 mg/kg against Haemonchus, sheep, 15 mg/kg, Table V

SMILES | inhibition in vivo at 15 mg/kg [2] | inhibition in vivo at 15 mg/kg [3] | further results
Cc1c([N+](=O)[O-])cc(C(C)(C)C)c(O)c1C(=O)Nc1ccccc1C(F)(F)F [Example 14] | 0% | 0% | inhibition in vivo at 15 mg/kg [1]: 0%
Cc1ccc(NC(=O)c2c(C)c([N+](=O)[O-])cc(C(C)(C)C)c2O)cc1Cl [Example 72] | 80% | – | inhibition in vivo at 5 mg/kg (Haemonchus contortus, sheep, 5 mg/kg, Tables VIII-XI, read-out: Haemonchus, percentage of microorganism killed): 0%
Cc1c([N+](=O)[O-])cc(C(C)(C)C)c(O)c1C(=O)Nc1ccccc1Br [Example 17] | 0% | 0% | inhibition in vivo at 15 mg/kg [1]: 0%
Cc1ccc(Cl)cc1NC(=O)c1c(C)c([N+](=O)[O-])cc(C(C)(C)C)c1O [Example 29] | 0% | – | inhibition in vivo at 15 mg/kg [4]: 0%; effectiveness against the parasites, in words (sheep): ineffective
CCOC(=O)c1ccc(NC(=O)c2c(C)c([N+](=O)[O-])cc(C(C)(C)C)c2O)cc1 [Example 20] | – | 18% | –
Cc1cccc(Cl)c1NC(=O)c1c(C)c([N+](=O)[O-])cc(C(C)(C)C)c1O [Example 30] | 0% | – | inhibition in vivo at 15 mg/kg [4]: 0%; effectiveness against the parasites, in words (sheep): ineffective
Cc1c([N+](=O)[O-])cc(C(C)(C)C)c(O)c1C(=O)Nc1cccc(I)c1 [33 I 3'-substitution] | 14% | – | inhibition in vivo at 15 mg/kg [5]: 0%
Cc1c([N+](=O)[O-])cc(C(C)(C)C)c(O)c1C(=O)Nc1cccc(C(F)(F)F)c1 [34 CF3 3'-substitution] | 2% | – | inhibition in vivo at 15 mg/kg [1]: 2%
Cc1c([N+](=O)[O-])cc(C(C)(C)C)c(O)c1C(=O)Nc1ccccc1I [Example 18] | 0% | 0% | inhibition in vivo at 15 mg/kg [5]: 0%
Cc1c([N+](=O)[O-])cc(C(C)(C)C)c(O)c1C(=O)Nc1cccc(Cl)c1 [31 Cl 3'-substitution] | 0% | – | inhibition in vivo at 15 mg/kg [1]: 0%
Cc1c([N+](=O)[O-])cc(C(C)(C)C)c(O)c1C(=O)Nc1ccc(S(N)(=O)=O)cc1 [Example 19] | – | 0% | –
Cc1ccc(NC(=O)c2c(C)c([N+](=O)[O-])cc(C(C)(C)C)c2O)c(Cl)c1 [Example 71] | 62% | – | –
COc1cc(Cl)ccc1NC(=O)c1c(C)c([N+](=O)[O-])cc(C(C)(C)C)c1O [Example 22] | – | 10% | –
Cc1c([N+](=O)[O-])cc(C(C)(C)C)c(O)c1C(=O)Nc1ccccc1Cl [Example 16] | 33% | 33% | inhibition in vivo at 15 mg/kg [1]: 33%
Cc1c([N+](=O)[O-])cc(C(C)(C)C)c(O)c1C(=O)Nc1ccccc1F [Example 15] | – | 0% | –
Cc1ccc(NC(=O)c2c(C)c([N+](=O)[O-])cc(C(C)(C)C)c2O)c(C)c1 [Example 21] | – | 13% | –
Cc1cc(NC(=O)c2c(C)c([N+](=O)[O-])cc(C(C)(C)C)c2O)c(C)cc1Cl [Example 39] | – | – | Effectiveness at 15 mg/kg against Haemonchus (sheep, 15 mg/kg): 0%
Cc1c([N+](=O)[O-])cc(C(C)(C)C)c(O)c1C(=O)Nc1cccc(Cl)c1Cl [Example 60] | 14% | – | –
Cc1c([N+](=O)[O-])cc(C(C)(C)C)c(O)c1C(=O)Nc1c(Cl)cc(Cl)cc1Cl [Example 37] | – | – | Effectiveness at 15 mg/kg against Haemonchus (sheep, 15 mg/kg): 73%
